Data published in PubChem BioAssay AID248 (DTP/NCI, 2004).
Several values for one entry are separate records, joined by “and”; a condition that tells them apart may be missing. Equal values may be shown once. Inconclusive results and toxic doses are left out. Cut-off read from the data, not from the text of the source: active = T/C of 150% or more; inactive = T/C below 125%.

System: L1210 leukemia ip in BDF1 mice, survival T/C
Experiment: NCI In Vivo Anticancer Drug Screen. Data for tumor model L1210 Leukemia (intraperitoneal) in B6D2F1 (BDF1) mice
Conditions: endpoint: mean survival time, higher = longer survival
Procedure, shortened: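 Each compound was tested against a transplantable tumor grown in mice. The endpoint was survival, with treated animals benchmarked against vehicle controls as a simple ratio.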

[1] = dose: 100.0 mg/kg/injection, schedule: Q01DX009 (ip), vehicle: Klucel (hydroxypropylcellulose) (HPC)
[2] = dose: 100.0 mg/kg/injection, schedule: Q04DX003 (ip), vehicle: Klucel (hydroxypropylcellulose) (HPC)
[3] = dose: 200.0 mg/kg/injection, schedule: Q01DX009 (ip), vehicle: Klucel (hydroxypropylcellulose) (HPC)
[4] = dose: 200.0 mg/kg/injection, schedule: Q04DX003 (ip), vehicle: Klucel (hydroxypropylcellulose) (HPC)
[5] = dose: 400.0 mg/kg/injection, schedule: Q01DX009 (ip), vehicle: Klucel (hydroxypropylcellulose) (HPC)
[6] = dose: 400.0 mg/kg/injection, schedule: Q04DX003 (ip), vehicle: Klucel (hydroxypropylcellulose) (HPC)
[7] = dose: 100.0 mg/kg/injection, schedule: Q01DX001 (ip), vehicle: saline
[8] = dose: 200.0 mg/kg/injection, schedule: Q01DX001 (ip), vehicle: saline
[9] = dose: 50.0 mg/kg/injection, schedule: Q01DX009 (ip), vehicle: saline with Tween-80
[10] = dose: 100.0 mg/kg/injection, schedule: Q01DX009 (ip), vehicle: saline with Tween-80
[11] = dose: 100.0 mg/kg/injection, schedule: Q04DX003 (ip), vehicle: saline with Tween-80
[12] = dose: 200.0 mg/kg/injection, schedule: Q01DX009 (ip), vehicle: saline with Tween-80
[13] = dose: 200.0 mg/kg/injection, schedule: Q04DX003 (ip), vehicle: saline with Tween-80
[14] = dose: 400.0 mg/kg/injection, schedule: Q04DX003 (ip), vehicle: saline with Tween-80
[15] = dose: 400.0 mg/kg/injection, schedule: Q01DX009 (ip), vehicle: saline
[16] = dose: 400.0 mg/kg/injection, schedule: Q01DX001 (ip), vehicle: saline
[17] = dose: 100.0 mg/kg/injection, schedule: Q04DX002 (ip), vehicle: saline with Tween-80
[18] = dose: 200.0 mg/kg/injection, schedule: Q04DX002 (ip), vehicle: saline with Tween-80
[19] = dose: 50.0 mg/kg/injection, schedule: Q01DX001 (ip), vehicle: carboxymethylcellulose (CMC)
[20] = dose: 100.0 mg/kg/injection, schedule: Q01DX001 (ip), vehicle: carboxymethylcellulose (CMC)
[21] = dose: 200.0 mg/kg/injection, schedule: Q01DX001 (ip), vehicle: carboxymethylcellulose (CMC)
[22] = dose: 400.0 mg/kg/injection, schedule: Q01DX001 (ip), vehicle: carboxymethylcellulose (CMC)

Measured: T/C

COC(=O)[C@H]1[C@H]2C[C@@H]3c4[nH]c5cc(OC)ccc5c4CCN3C[C@H]2C[C@@H](OC(=O)c2cccc(N(C)C)c2)[C@@H]1OC
inactive: dose: 0.78 mg/kg/injection, schedule: Q01DX009 (ip), vehicle: Klucel (hydroxypropylcellulose) (HPC) 102 % of control | dose: 0.78 mg/kg/injection, schedule: Q04DX003 (ip), vehicle: Klucel (hydroxypropylcellulose) (HPC) 94 % of control | dose: 1.56 mg/kg/injection, schedule: Q01DX009 (ip), vehicle: Klucel (hydroxypropylcellulose) (HPC) 102 % of control | dose: 1.56 mg/kg/injection, schedule: Q04DX003 (ip), vehicle: Klucel (hydroxypropylcellulose) (HPC) 107 % of control | dose: 3.12 mg/kg/injection, schedule: Q01DX009 (ip), vehicle: Klucel (hydroxypropylcellulose) (HPC) 96 % of control | dose: 3.12 mg/kg/injection, schedule: Q04DX003 (ip), vehicle: Klucel (hydroxypropylcellulose) (HPC) 104 % of control | dose: 6.25 mg/kg/injection, schedule: Q01DX009 (ip), vehicle: Klucel (hydroxypropylcellulose) (HPC) 93 % of control | dose: 6.25 mg/kg/injection, schedule: Q04DX003 (ip), vehicle: Klucel (hydroxypropylcellulose) (HPC) 104 % of control | dose: 12.5 mg/kg/injection, schedule: Q04DX003 (ip), vehicle: Klucel (hydroxypropylcellulose) (HPC) 100 % of control

O=P(CCl)(NC12CC3CC(CC(C3)C1)C2)N1CC1 (stereo not given)
inactive: dose: 50.0 mg/kg/injection, schedule: Q04DX003 (ip), vehicle: Klucel (hydroxypropylcellulose) (HPC) 100 % of control | [1] 97 % of control | [2] 95 % of control | [3] 95 % of control | [4] 103 % of control | [5] 103 % of control | [6] 97 % of control

O=C(O)CCBr
inactive: [7] 93 % of control | [8] 104 % of control

O=C1CCC(N2C(=O)C3C4CCC(O4)C3C2=O)C(=O)O1 (stereo not given)
inactive: dose: 100.0 mg/kg/injection, schedule: Q04DX002 (ip), vehicle: saline 102 % of control | dose: 200.0 mg/kg/injection, schedule: Q04DX002 (ip), vehicle: saline 94 % of control | dose: 400.0 mg/kg/injection, schedule: Q04DX002 (ip), vehicle: saline 91 % of control

CCCCN(c1ccccc1)c1ncnc2c1cnn2C
inactive: [9] 100 % of control | [10] 102 % of control and 104 % of control | [11] 97 % of control | [12] 98 % of control and 105 % of control | [13] 96 % of control | [14] 94 % of control

CC1(C)N=C(N)N=C(N)N1c1ccc(OCC(=O)Nc2ccc(S(=O)(=O)F)cc2)c(Cl)c1
inactive: dose: 50.0 mg/kg/injection, schedule: Q01DX009 (ip), vehicle: carboxymethylcellulose (CMC) 106 % of control and 117 % of control | dose: 50.0 mg/kg/injection, schedule: Q01DX009 (ip), vehicle: saline 109 % of control | dose: 100.0 mg/kg/injection, schedule: Q01DX009 (ip), vehicle: carboxymethylcellulose (CMC) 114 % of control | dose: 400.0 mg/kg/injection, schedule: Q01DX009 (ip), vehicle: carboxymethylcellulose (CMC) 94 % of control | [15] 109 % of control

CC(=O)N/N=C(/C)C1CC2CCC1C2 (stereo not given)
inactive: [7] 104 % of control | [8] 106 % of control | [16] 112 % of control

CC(C)NC(=O)Nc1cccc(O)c1
inactive: [11] 96 % of control | [13] 89 % of control | [14] 89 % of control

COC(=O)c1cc([N+](=O)[O-])cc([N+](=O)[O-])c1O
inactive: dose: 50.0 mg/kg/injection, schedule: Q01DX009 (ip), vehicle: Klucel (hydroxypropylcellulose) (HPC) 87 % of control | [17] 100 % of control | [18] 105 % of control

C[N+](C)(C)CCOC(=O)c1ccc(CCl)cc1
inactive: dose: 25.0 mg/kg/injection, schedule: Q04DX002 (ip), vehicle: saline with Tween-80 113 % of control | dose: 50.0 mg/kg/injection, schedule: Q04DX002 (ip), vehicle: saline with Tween-80 102 % of control | dose: 100.0 mg/kg/injection, schedule: Q04DX002 (ip), vehicle: other 98 % of control | [17] 110 % of control

COC(=O)/C=C(\C)Nc1cc(OC)ccc1OC
inactive: [7] 94 % of control | [8] 87 % of control | [16] 92 % of control

N#Cc1ccc(N=S=O)cc1
inactive: [17] 105 % of control | [18] 112 % of control

O=S(=O)(O)CCN1CCOCC1
inactive: [1] 100 % of control | [5] 100 % of control

OC1(C2(O)CCC2)CCC1
inactive: [19] 98 % of control | [20] 95 % of control | [21] 95 % of control | [22] 101 % of control

COC(=O)NC1c2ccccc2CCC1I (stereo not given)
inactive: [9] 94 % of control | [10] 90 % of control | [12] 92 % of control

CN(C)c1ccc(C(C[N+](=O)[O-])(c2ccc(N(C)C)cc2)c2ccc(N(C)C)cc2)cc1
inactive: [1] 93 % of control | [2] 103 % of control | [3] 100 % of control | [4] 93 % of control | [5] 97 % of control | [6] 90 % of control

CNc1nc(N)nc(Nc2ccc(I)cc2)c1N=O
inactive: [20] 105 % of control | dose: 100.0 mg/kg/injection, schedule: Q01DX009 (ip), vehicle: acetone 107 % of control | dose: 100.0 mg/kg/injection, schedule: Q04DX003 (ip), vehicle: acetone 115 % of control | [21] 110 % of control | dose: 200.0 mg/kg/injection, schedule: Q01DX009 (ip), vehicle: acetone 107 % of control | dose: 200.0 mg/kg/injection, schedule: Q04DX003 (ip), vehicle: acetone 105 % of control | [22] 100 % of control | dose: 400.0 mg/kg/injection, schedule: Q01DX009 (ip), vehicle: acetone 98 % of control | dose: 400.0 mg/kg/injection, schedule: Q04DX003 (ip), vehicle: acetone 98 % of control

Cc1cc(=O)[nH]c2c(O)cc([N+](=O)[O-])cc12
inactive: dose: 50.0 mg/kg/injection, schedule: Q01DX001 (ip), vehicle: Klucel (hydroxypropylcellulose) (HPC) 111 % of control | dose: 100.0 mg/kg/injection, schedule: Q01DX001 (ip), vehicle: Klucel (hydroxypropylcellulose) (HPC) 100 % of control | dose: 200.0 mg/kg/injection, schedule: Q01DX001 (ip), vehicle: Klucel (hydroxypropylcellulose) (HPC) 97 % of control

CC(C)CCC[C@@H](C)[C@H]1CC[C@H]2[C@@H]3CC[C@H]4C[C@H](NC(=O)N(CCCl)N=O)CC[C@]4(C)[C@H]3CC[C@]12C
inactive: dose: 10.0 mg/kg/injection, schedule: Q01DX001 (ip), vehicle: other 103 % of control | dose: 23.0 mg/kg/injection, schedule: Q01DX001 (ip), vehicle: other 95 % of control | dose: 46.0 mg/kg/injection, schedule: Q01DX001 (ip), vehicle: other 104 % of control | dose: 93.0 mg/kg/injection, schedule: Q01DX001 (ip), vehicle: other 103 % of control | dose: 187.0 mg/kg/injection, schedule: Q01DX001 (ip), vehicle: other 103 % of control | dose: 375.0 mg/kg/injection, schedule: Q01DX001 (ip), vehicle: other 110 % of control | dose: 500.0 mg/kg/injection, schedule: Q01DX001 (ip), vehicle: other 104 % of control | dose: 1000.0 mg/kg/injection, schedule: Q01DX001 (ip), vehicle: other 119 % of control

NNC(=O)c1ccccc1NCCO
inactive: [7] 101 % of control | [8] 97 % of control | [16] 101 % of control

O=C(/C=C/c1ccccc1)CCN1CCC2CCC(C2)C1 (stereo not given)
inactive: [19] 103 % of control | [20] 97 % of control

CCNC(=O)NCCN1CCOCC1
inactive: dose: 100.0 mg/kg/injection, schedule: Q01DX009 (ip), vehicle: saline 95 % of control | dose: 200.0 mg/kg/injection, schedule: Q01DX009 (ip), vehicle: saline 98 % of control | [15] 104 % of control

CCOP(=S)(NN=C1CCC(C(C)(C)C)CC1)OCC (stereo not given)
inactive: [7] 103 % of control | [8] 97 % of control
